# Assay results published in publication PMC2585982 (Toxicology and applied pharmacology, 2008).
# pEC50: −log10 of the molar value.
# What was measured:
# PXR = biological target: T1, PXR (Mus musculus, UniProt O54915); assay: PXR-DR3 reporter assay; assay type: cell-based
# T1 sequence (O54915 1-431): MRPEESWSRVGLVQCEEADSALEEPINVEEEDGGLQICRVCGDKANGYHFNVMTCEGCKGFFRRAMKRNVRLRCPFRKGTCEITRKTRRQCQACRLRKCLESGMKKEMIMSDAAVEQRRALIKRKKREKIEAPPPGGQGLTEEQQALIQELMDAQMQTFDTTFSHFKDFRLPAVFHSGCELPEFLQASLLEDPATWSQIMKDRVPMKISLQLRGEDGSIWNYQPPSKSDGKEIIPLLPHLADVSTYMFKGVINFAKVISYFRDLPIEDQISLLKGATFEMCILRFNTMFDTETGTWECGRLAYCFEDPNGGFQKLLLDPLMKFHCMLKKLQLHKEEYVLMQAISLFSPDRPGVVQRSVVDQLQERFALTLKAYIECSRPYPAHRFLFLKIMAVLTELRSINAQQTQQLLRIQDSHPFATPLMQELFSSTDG
# T1 sequence (P19793 1-462 partner): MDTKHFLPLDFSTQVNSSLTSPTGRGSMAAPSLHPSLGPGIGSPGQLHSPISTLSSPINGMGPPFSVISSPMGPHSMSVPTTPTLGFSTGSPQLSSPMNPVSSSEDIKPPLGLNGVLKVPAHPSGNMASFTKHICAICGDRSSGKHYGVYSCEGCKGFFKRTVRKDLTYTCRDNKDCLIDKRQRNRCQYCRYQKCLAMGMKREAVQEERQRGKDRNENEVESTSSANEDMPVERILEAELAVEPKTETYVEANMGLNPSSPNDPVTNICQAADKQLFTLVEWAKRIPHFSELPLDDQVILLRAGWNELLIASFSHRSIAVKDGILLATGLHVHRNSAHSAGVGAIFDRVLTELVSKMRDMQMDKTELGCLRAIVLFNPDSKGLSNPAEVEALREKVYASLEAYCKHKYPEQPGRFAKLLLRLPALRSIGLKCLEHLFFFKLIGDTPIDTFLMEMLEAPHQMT
# P450 = assay: Liver microsomal P450 content after oral dosing of mice; assay type: in vivo; conditions: C57BL/6 mice, 100 mg/kg p.o. 3 days, vs corn oil
# [1] = tested on: GST (cumene hydroperoxide); assay: Liver GST activity, cumene hydroperoxide as substrate, after oral dosing of mice; assay type: in vivo; conditions: female SENCAR mice, even at the highest doses, data not shown
# GSTα = assay: Western blot of liver cytosol, GSTα protein expression; assay type: in vivo; conditions: SENCAR mice, 35, 70, 150 mg/kg p.o., particularly at the highest doses
# GSTa1 mRNA = assay: Northern blot of liver RNA, GSTa1 mRNA in CAR; assay type: in vivo, mice; conditions: isopimpinellin 150 mg/kg p.o. 24 h; TC 3 mg/kg i.p. 6 h
# P450 3A11 = conditions: mouse, in vivo, po, 100 mg/kg
# P450s 2B9/10 = conditions: mice treated 3 consecutive days; ref Kleiner et al., 2001; cited from earlier work
smiles,measurement,setting,value
"COc1c2ccoc2c(OC)c2oc(=O)ccc12 [isopimpinellin, 5,8-dimethoxypsoralen]",pEC50,PXR,4.80
same,"Max (concentration to reach maximal effect), PXR-DR3","PXR; CV-1 cells, full length PXR","30,000 nM"
same,"P450 content, liver microsomes",P450,increased
same,GST activity using cumene hydroperoxide as a substrate,[1],no differences
same,"Hepatic expression of GST α protein, dose-response study",GSTα,greatly increased
same,"Increase in hepatic GSTa1 mRNA, female CAR(−/−) mice",GSTa1 mRNA,~ 3 fold
same,"Increase in hepatic GSTa1 mRNA, male CAR(−/−) mice",GSTa1 mRNA,~ 8 fold
same,"Increase in hepatic GSTa1 mRNA, male and female CAR(+/+) mice",GSTa1 mRNA,10–11 fold
same,P450 3A11 protein expression (western blot densitometry),P450 3A11,increased
same,Hepatic P450 2B9/10 activity at 1 h after the final dose,P450s 2B9/10,no elevation
same,Increase in hepatic P450 2B9/10 activity at 24 h after the final dose,P450s 2B9/10,100 fold
